Reference: patent publication US7511145B2 (Genelabs Technologies, Inc., priority 2003, dated 2009)

Target: T1, HCV-NS5b (Hepatitis C virus genotype 1b, UniProt Q9WMX2)
T1 construct: (His)6 (C); made in house; host or cells: XL-1 cells (E. coli), IPTG-inducible plasmid, nickel-NTA purification
Assay: HCV-NS5b enzyme assay (incorporation of radiolabeled UTP)
Type: biochemical
Details: for inhibition at 33 µM: enzyme inhibition at compound concentration of 33 uM; for inhibition at 100 µM: read-out: % inh@100, enzyme inhibition at compound concentration of 100 uM
Text: The coding sequence of NS5b protein was cloned by PCR from pFKI389luc/NS3-3′/ET as described by Lohmann, V., et al. (1999) Science 285, 110-113 using the following primers: […]
The cloned fragment was missing the C terminus 21 amino acid residues. The cloned fragment was inserted into an IPTG-inducible expression plasmid that provided an epitope tag (His)6 at the carboxy terminus of the protein.
The recombinant enzyme was expressed in XL-1 cells and after induction of expression, the protein was purified using affinity chromatography on a nickel-NTA column. Storage condition was 10 mM Tris-HCl pH 7.5, 50 mM NaCl, 0.1 mM EDTA, 1 mM DTT, 20% glycerol at −20° C.
The polymerase activity was assayed by measuring incorporation of radiolabeled UTP into a RNA product using a biotinylated, heteropolymeric template, which included a portion of the HCV genome. Typically, the assay mixture (50 μL) contained 10 mM Tris-HCl (pH 7.5), 5 mM MgCl2, 0.2 mM EDTA, 10 mM KCl, 1 unit/μL RNAsin, 1 mM DTT, 10 μM each of NTP, including [^3H]-UTP, and 10 ng/μL heteropolymeric template. Test compounds were initially dissolved in 100% DMSO and further diluted in aqueous buffer containing 5% DMSO. Typically, compounds were tested at concentrations between 1 nM and 100 μM. Reactions were started with addition of enzyme and allowed to continue at 37° C. for 2 hours. Reactions were quenched with 8 μL of 100 mM EDTA and reaction mixtures (30 μL) were transferred to streptavidin-coated scintillation proximity microtiter plates (FlashPlates) and incubated at 4° C. overnight. Incorporation of radioactivity was determined by scintillation counting.
Shown in Table IX below are the values for enzyme inhibition measured at compound concentrations of 100 and 33 uM, (% inh@[…] and % inh@33, respectively). The percent inhibition values are calculated from the differential incorporation of radioactivity compared to a control reaction without compound: % inhibition=100−[(CountsINH−CountsBKG)/CountsCTRL−CountsBKG)×100 where CountsINH is the signal of the testwell with inhibitor, CountsBKG is the background signal and CountsCTRL is the signal of a testwell without inhibitor.

SMILES	inhibition at 33 µM	inhibition at 100 µM
COc1ccc(-c2ccc(F)cc2)c(-c2ccc3cc(-c4nc5cc(C(=O)O)ccc5n4C4CCCCC4)ccc3n2)c1 [Compound 455, 1-Cyclohexyl-2-[2-(4′-fluoro-4-methoxy-biphen-2-yl)-quinolin-6-yl]-1H-benzoimidazole-5-carboxylic acid]	100%	99.8%
O=C(N[C@@H](Cc1ccc(-c2ccccc2)cc1)C(=O)O)c1ccc2c(c1)nc(-c1ccc3nc(-c4ccccc4)cnc3c1)n2C1CCCCC1 [Compound 240, 3-Biphenyl-4-yl-2-{[1-cyclohexyl-2-(2-phenyl-quinoxalin-6-yl)-1H-benzoimidazole-5-carbonyl]-amino}propionic acid]	95.7%	96.1%
O=C(O)c1ccc2c(c1)nc(-c1ccc3nc(-c4ccc(Oc5ccccc5)cc4)ccc3c1)n2C1CCCCC1 [Compound 428, 1-cyclohexyl-2-[2-(4-phenoxy-phenyl)-quinolin-6-yl]-1H-benzoimidazole-5-carboxylic acid]	98.8%	99.6%
O=C(O)c1ccc2c(c1)nc(-c1ccc3nc(-c4ccccn4)ccc3c1)n2C1CCCCC1 [Compound 427, 1-cyclohexyl-2-(2-pyridin-2-yl-quinolin-6-yl)-1H-benzoimidazole-5-carboxylic acid]	93.8%	98.4%
COc1cc(O)c(-c2ccc3cc(-c4nc5cc(C(=O)O)ccc5n4C4CCCCC4)ccc3n2)c(OC)c1 [Compound 452, 1-cyclohexyl-2-[2-(2-hydroxy-4,6-dimethoxy-phenyl)-quinolin-6-yl]-1H-benzoimidazole-5-carboxylic acid]	102%	102%
NNc1cc(-c2ccccc2)nc2ccc(-c3nc4cc(C(=O)O)ccc4n3C3CCCCC3)cc12 [Compound 466, 1-Cyclohexyl-2-(4-hydrazino-2-phenyl-quinolin-6-yl)-1H-benzoimidazole-5-carboxylic acid]	92.9%	100%
O=C(O)c1ccc2c(c1)nc(-c1ccc3nc(-c4cc([N+](=O)[O-])ccc4-c4ccc(Cl)cc4)ccc3c1)n2C1CCCCC1 [Compound 439, 2-[2-(4′-chloro-4-nitro-biphen-2-yl)-quinolin-6-yl]-1-cyclohexyl-1H-benzoimidazole-5-carboxylic acid]	99.2%	97%
O=C(N[C@@H](CC1CCCCC1)C(=O)O)c1ccc2c(c1)nc(-c1ccc3nc(-c4ccccc4)cnc3c1)n2C1CCCCC1 [Compound 242, 3-Cyclohexyl-2-{[1-cyclohexyl-2-(2-phenyl-quinoxalin-6-yl)-1H-benzoimidazole-5-carbonyl]-amino}-propionic acid]	97.4%	97%
COCCOc1cccc(-c2ccc3cc(-c4nc5cc(C(=O)O)ccc5n4C4CCCCC4)ccc3n2)c1 [Compound 445, 1-Cyclohexyl-2-{2-[3-(2-methoxy-ethoxy)-phenyl]-quinolin-6-yl}-1H-benzoimidazole-5-carboxylic acid]	96.9%	99.6%
CCOCCOc1ccc(-c2ccc(Cl)cc2)c(-c2ccc3cc(-c4nc5cc(C(=O)O)ccc5n4C4CCCCC4)ccc3n2)c1 [Compound 507, 2-{2-[4′-Chloro-4-(2-ethoxy-ethoxy)-biphen-2-yl]-quinolin-6-yl}-1-cyclohexyl-1H-benzoimidazole-5-carboxylic acid]	101%	101%
O=C(N[C@@H](Cc1ccccc1)C(=O)O)c1ccc2c(c1)nc(-c1ccc3nc(-c4ccccc4)cnc3c1)n2C1CCCCC1 [Compound 246, 2-{[1-Cyclohexyl-2-(2-phenyl-quinoxalin-6-yl)-1H-benzoimidazole-5-carbonyl]-amino}-3-phenyl-propionic acid]	95.9%	96.4%
COc1ccc(-c2ccc(Cl)cc2)c(-c2ccc3cc(-c4nc5cc(C(=O)O)cnc5n4C4CCCCC4)ccc3n2)c1 [Compound 537, 2-[2-(4′-chloro-4-methoxy-biphen-2-yl)-quinolin-6-yl]-3-cyclohexyl-3H-imidazo[4,5-b]pyridine-6-carboxylic acid]	100%	99.8%
O=C(O)CNC(=O)c1ccc2c(c1)nc(-c1ccc3nc(-c4ccccc4)cnc3c1)n2C1CCCCC1 [Compound 311, {[1-Cyclohexyl-2-(2-phenyl-quinoxalin-6-yl)-1H-benzoimidazole-5-carbonyl]-amino}-acetic acid]	83%	93.3%
COc1ccc(-c2ccc(Cl)cc2)c(-c2ccc3cc(-c4nc5cc(C(=O)O)ccc5n4CC4CC4)ccc3n2)c1 [Compound 531, 2-[2-(4′-chloro-4-methoxy-biphen-2-yl)-quinolin-6-yl]-1-cyclopropylmethyl-1H-benzoimidazole-5-carboxylic acid]	100%	99.3%
Cc1nn(-c2ccccc2)c(C)c1-c1ccc2cc(-c3nc4cc(C(=O)O)ccc4n3C3CCCCC3)ccc2n1 [Compound 464, 1-cyclohexyl-2-[2-(3,5-dimethyl-1-phenyl-1H-pyrazol-4-yl)-quinolin-6-yl]-1H-benzoimidazole-5-carboxylic acid]	99.7%	100%
O=C(O)c1ccc2c(c1)nc(-c1ccc3nc(-c4ccnc5ccccc45)ccc3c1)n2C1CCCCC1 [Compound 423, 2-[2,4′]biquinolinyl-6-yl-1-cyclohexyl-1H-benzoimidazole-5-carboxylic acid]	102%	102%
Nc1ccc(-c2ccc(Cl)cc2)c(-c2ccc3cc(-c4nc5cc(C(=O)O)ccc5n4C4CCCCC4)ccc3n2)c1 [Compound 569, 2-[2-(4-amino-4′-chloro-biphen-2-yl)-quinolin-6-yl]-1-cyclohexyl-1H-benzoimidazole-5-carboxylic acid]	101%	101%
COc1ccc(-c2ccc(Cl)cc2)c(-c2ccc3cc(-c4nc5cc(C(=O)O)ccc5n4CC(C)C)ccc3n2)c1 [Compound 530, 2-[2-(4′-Chloro-4-methoxy-biphen-2-yl)-quinolin-6-yl]-1-isobutyl-1H-benzoimidazole-5-carboxylic acid]	98.2%	98.2%
NC(=O)CNC(=O)c1ccc(-c2ccccc2)c(-c2ccc3cc(-c4nc5cc(C(=O)O)ccc5n4C4CCCCC4)ccc3n2)c1 [Compound 377, 2-{2-[4-(Carbamoylmethyl-carbamoyl)-biphen-2-yl]-quinolin-6-yl}-1-cyclohexyl-1H-benzoimidazole-5-carboxylic acid]	99.2%	99.4%
Cc1cc(-c2nc3cc(C(=O)O)ccc3n2C2CCCCC2)cc2ccc(-c3ccccc3)nc12 [Compound 397, 1-Cyclohexyl-2-(8-methyl-2-phenyl-quinolin-6-yl)-1H-benzoimidazole-5-carboxylic acid]	95.6%	99.3%
CSCC[C@H](NC(=O)c1ccc2c(c1)nc(-c1ccc3nc(-c4ccccc4)cnc3c1)n2C1CCCCC1)C(=O)O [Compound 515, 2-{[1-Cyclohexyl-2-(2-phenyl-quinoxalin-6-yl)-1H-benzoimidazole-5-carbonyl]-amino}-4-methylsulfanyl-butyric acid]	81.9%	88.3%
Cc1cc(-c2ccccc2-c2ccc(Cl)cc2)nc2ccc(-c3nc4cc(C(=O)O)ccc4n3C3CCCCC3)cc12 [Compound 485, 2-[2-(4′-Chloro-biphen-2-yl)-4-methyl-quinolin-6-yl]-1-cyclohexyl-1H-benzoimidazole-5-carboxylic acid]	98.6%	99.5%
CN1CCN(C(=O)c2ccc3c(c2)nc(-c2cc4ccc(-c5ccccc5-c5ccc(Cl)cc5)nc4cc2F)n3C2CCCCC2)CC1 [Compound 521, {2-[2-(4′-Chloro-biphen-2-yl)-7-fluoro-quinolin-6-yl]-1-cyclohexyl-1H-benzoimidazol-5-yl}-(4-methyl-piperazin-1-yl)-methanone]	84.8%	91.4%
O=C(O)c1ccc2c(c1)nc(-c1ccc3nc(-c4cc(Cl)ccc4-c4ccc(Cl)cc4)ccc3c1)n2C1CCCCC1 [Compound 567, 1-cyclohexyl-2-[2-(4,4′-dichloro-biphen-2-yl)-quinolin-6-yl]-1H-benzoimidazole-5-carboxylic acid]	101%	97.7%
